Reference: patent US9587005B2 (priority 2010, dated 2017)
Read-outs that look alike come from different tables or passages of the source. *1 amine or outer side, *2 acyl side, *3 side chain or, on linkers, in order; H or OH if unused. Where a SMILES comes first, the peptide text is derived from it. Bridges are numbered along the chain shown (N, C = ends). Where no end group is shown, it is not given here. Side-chain parts run from the residue outwards. [ ]: non-standard residue; d: D form. The star is where a group is joined. γGlu = O=C(O)[C@H](CCC(=O)[*:2])N[*:1]; Palmitoyl = CCCCCCCCCCCCCCCC(=O)*; Aib = CC(C)(N)C(=O)O

How the values were obtained:
Format in all cases: cell-based
GIP receptor = biological target: T1, GIP receptor (Homo sapiens, UniProt P48546); test: cAMP induction, firefly luciferase reporter assay in HEK293 cells co-transfected with GIP receptor; conditions: for GIPR relative activity: Table 3, relative to the activity of the native hormone
T1 sequence (P48546 22-466): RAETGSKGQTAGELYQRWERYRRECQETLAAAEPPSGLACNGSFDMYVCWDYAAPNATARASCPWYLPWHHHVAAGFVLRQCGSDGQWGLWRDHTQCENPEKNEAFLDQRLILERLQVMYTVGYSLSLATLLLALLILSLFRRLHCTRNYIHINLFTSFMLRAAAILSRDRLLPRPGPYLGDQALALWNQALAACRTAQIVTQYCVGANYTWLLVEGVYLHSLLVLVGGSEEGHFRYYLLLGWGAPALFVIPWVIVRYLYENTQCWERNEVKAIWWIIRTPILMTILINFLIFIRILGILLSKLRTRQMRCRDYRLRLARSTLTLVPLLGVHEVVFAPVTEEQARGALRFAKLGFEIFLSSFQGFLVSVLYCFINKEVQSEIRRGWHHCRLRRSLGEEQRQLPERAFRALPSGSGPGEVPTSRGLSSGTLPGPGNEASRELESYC

GLP-1 receptor = biological target: T2, GLP-1 receptor (Homo sapiens, UniProt P43220); test: cAMP induction, firefly luciferase reporter assay in HEK293 cells co-transfected with GLP-1 receptor; conditions: for GLP-1R relative activity: Table 3, relative to the activity of the native hormone
T2 construct: expressed in transfected cells; host or cells: HEK293
Description: (§1) This example describes an exemplary method of testing the biological activity of the peptides of the present disclosures, which method involves assaying cAMP synthesis.

glucagon receptor = biological target: T3, glucagon receptor (Homo sapiens, UniProt P47871); test: cAMP induction, firefly luciferase reporter assay in HEK293 cells co-transfected with glucagon receptor; conditions: for EC50: EC50 (nM) at Glucagon Receptor; for GR relative activity: Table 3, relative to the activity of the native hormone
T3 construct: expressed in transfected cells; host or cells: HEK293
Description: as §1

[1] = EC50 (nM) at GIP Receptor, Table 6, Example 12
[2] = EC50 (nM) at GLP-1 Receptor, Table 6, Example 12
[3] = Table 3, Example 8, read-out: GIPR EC50
[4] = Table 3, Example 8, read-out: GLP-1R EC50

T2 sequence (P43220 24-463): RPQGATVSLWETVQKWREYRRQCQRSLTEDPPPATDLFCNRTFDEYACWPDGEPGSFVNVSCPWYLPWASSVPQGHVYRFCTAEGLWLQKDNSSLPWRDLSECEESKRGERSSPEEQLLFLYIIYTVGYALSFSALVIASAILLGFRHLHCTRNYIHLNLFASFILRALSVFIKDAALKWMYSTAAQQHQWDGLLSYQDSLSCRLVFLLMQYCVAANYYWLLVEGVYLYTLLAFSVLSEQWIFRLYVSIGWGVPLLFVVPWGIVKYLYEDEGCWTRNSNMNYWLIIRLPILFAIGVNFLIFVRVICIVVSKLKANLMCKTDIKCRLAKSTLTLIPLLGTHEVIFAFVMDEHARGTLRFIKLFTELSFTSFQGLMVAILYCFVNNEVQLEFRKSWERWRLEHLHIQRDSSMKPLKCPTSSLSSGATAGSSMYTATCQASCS
T3 sequence (P47871 26-477): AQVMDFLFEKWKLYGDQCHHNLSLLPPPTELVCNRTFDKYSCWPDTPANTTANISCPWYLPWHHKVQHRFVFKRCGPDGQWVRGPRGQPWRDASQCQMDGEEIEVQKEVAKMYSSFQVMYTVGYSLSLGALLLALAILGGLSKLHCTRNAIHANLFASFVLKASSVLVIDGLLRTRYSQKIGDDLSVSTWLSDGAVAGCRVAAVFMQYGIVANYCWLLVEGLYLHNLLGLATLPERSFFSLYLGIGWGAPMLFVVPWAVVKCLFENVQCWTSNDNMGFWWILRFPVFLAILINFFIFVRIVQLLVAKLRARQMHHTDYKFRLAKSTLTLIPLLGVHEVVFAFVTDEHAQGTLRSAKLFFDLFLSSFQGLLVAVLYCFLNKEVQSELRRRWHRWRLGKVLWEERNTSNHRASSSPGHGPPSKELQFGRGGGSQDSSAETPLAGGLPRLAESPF

Row | EC50 (GIP receptor; [3]) [nM] | GIPR relative activity (GIP receptor) | EC50 (GLP-1 receptor; [4]) [nM] | GLP-1R relative activity (GLP-1 receptor) [%] | GR relative activity (glucagon receptor) [%] | Compound | also measured
1 | 14.3 | 0.13% | 0.338 | 7.40 | 0.70 | Example 8 peptide: Tyr1, AIB2, Glu16/Lys20 lactam, Leu-Ala-Gly 27-29, GPSSGAPPPS 30-39, or a peptide lacking a lactam [mt-218] | 
2 | 6.17 | .31% | 0.151 | 16.56 | 0.65 | Example 8 peptide: Tyr1, AIB2, Glu16/Lys20 lactam, Leu-Ala-Gly 27-29, GPSSGAPPPS 30-39, or a peptide lacking a lactam [mt-219] | 
3 | 10.3 | 0.19% | 0.18 | 13.89 | 1.18 | Example 8 peptide: Tyr1, AIB2, Glu16/Lys20 lactam, Leu-Ala-Gly 27-29, GPSSGAPPPS 30-39, or a peptide lacking a lactam [mt-220] | 
4 | 1.47 | 1.16% | 0.097 | 29.90 | 1.56 | Example 8 peptide: Tyr1, AIB2, Glu16/Lys20 lactam, Leu-Ala-Gly 27-29, GPSSGAPPPS 30-39, or a peptide lacking a lactam [mt-226] | 
5 | 2.27 | 0.75% | 0.146 | 19.86 | 1.01 | Example 8 peptide: Tyr1, AIB2, Glu16/Lys20 lactam, Leu-Ala-Gly 27-29, GPSSGAPPPS 30-39, or a peptide lacking a lactam [mt-228] | 

Further lines, the compound ahead of its results:

Row | Compound | EC50 (GIP receptor; [3]) [nM] | GIPR relative activity (GIP receptor) | EC50 (GLP-1 receptor; [4]) [nM] | GLP-1R relative activity (GLP-1 receptor) [%] | GR relative activity (glucagon receptor) [%] | also measured
6 | CCCCCCCCCCCCCCCC(=O)N[C@@H](CCC(=O)NCCCC[C@H](NC(=O)[C@H](CC(=O)O)NC(=O)[C@H](CO)NC(=O)[C@@H](NC(=O)[C@H](Cc1ccccc1)NC(=O)[C@@H](NC(=O)CNC(=O)[C@H](CCC(=O)O)NC(=O)C(C)(C)NC(=O)[C@@H](N)Cc1c[nH]cn1)[C@@H](C)O)[C@@H](C)O)C(=O)N[C@@H](CO)C(=O)N[C@@H](CCCCN)C(=O)N[C@@H](Cc1ccc(O)cc1)C(=O)N[C@@H](CC(C)C)C(=O)N[C@@H](CC(=O)O)C(=O)N[C@@H](CCC(=O)O)C(=O)N[C@@H](CCCNC(=N)N)C(=O)N[C@@H](C)C(=O)N[C@@H](C)C(=O)N[C@@H](CCC(N)=O)C(=O)N[C@@H](CC(=O)O)C(=O)N[C@@H](Cc1ccccc1)C(=O)N[C@H](C(=O)N[C@@H](CCC(N)=O)C(=O)N[C@@H](Cc1c[nH]c2ccccc12)C(=O)N[C@@H](CC(C)C)C(=O)N[C@@H](CC(C)C)C(=O)N[C@@H](CC(=O)O)C(=O)NCC(=O)NCC(=O)N1CCC[C@H]1C(=O)N[C@@H](CO)C(=O)N[C@@H](CO)C(=O)NCC(=O)N[C@@H](C)C(=O)N1CCC[C@H]1C(=O)N1CCC[C@H]1C(=O)N1CCC[C@H]1C(=O)N[C@@H](CO)C(N)=O)C(C)C)C(=O)O [compound 39] (H-H[Aib]EGTFTSDK([γGlu-Palmitoyl])SKYLDERAAQDFVQWLLDGGPSSGAPPPS-NH2; N-terminus assumed) |  |  |  |  |  | EC50 (GIP receptor; EC50 (nM) at GIP Receptor, Table 4, Example 9, composite of multiple different activity assays): 0.026 nM; EC50 (GLP-1 receptor; EC50 (nM) at GLP-1 Receptor, Table 4, Example 9, composite of multiple different activity assays): 0.008 nM; EC50 (glucagon receptor; Table 4, Example 9, composite of multiple different activity assays): 1.28 nM
7 | CCCCCCCCCCCCCCCC(=O)N[C@@H](CCC(=O)NCCCC[C@H](NC(=O)[C@H](CC(=O)O)NC(=O)[C@H](CO)NC(=O)[C@@H](NC(=O)[C@H](Cc1ccccc1)NC(=O)[C@@H](NC(=O)CNC(=O)[C@H](CCC(N)=O)NC(=O)C(C)(C)NC(=O)[C@@H](N)Cc1c[nH]cn1)[C@@H](C)O)[C@@H](C)O)C(=O)N[C@@H](CO)C(=O)N[C@@H](CCCCN)C(=O)N[C@@H](Cc1ccc(O)cc1)C(=O)N[C@@H](CC(C)C)C(=O)N[C@@H](CC(=O)O)C(=O)N[C@@H](CCC(=O)O)C(=O)N[C@@H](CCCNC(=N)N)C(=O)N[C@@H](CCCNC(=N)N)C(=O)N[C@@H](C)C(=O)NC(C)(C)C(=O)N[C@@H](CCC(=O)O)C(=O)N[C@@H](Cc1ccccc1)C(=O)N[C@H](C(=O)N[C@@H](CCC(N)=O)C(=O)N[C@@H](Cc1c[nH]c2ccccc12)C(=O)N[C@@H](CC(C)C)C(=O)N[C@@H](CC(C)C)C(=O)N[C@@H](CC(=O)O)C(=O)NCC(=O)NCC(=O)N1CCC[C@H]1C(=O)N[C@@H](CO)C(=O)N[C@@H](CO)C(=O)NCC(=O)N[C@@H](C)C(=O)N1CCC[C@H]1C(=O)N1CCC[C@H]1C(=O)N1CCC[C@H]1C(=O)N[C@@H](CO)C(N)=O)C(C)C)C(=O)O [compound 79] (H-H[Aib]QGTFTSDK([γGlu-Palmitoyl])SKYLDERRA[Aib]EFVQWLLDGGPSSGAPPPS-NH2; N-terminus assumed) |  |  |  |  |  | EC50 (GIP receptor; [1]): 0.003 nM; EC50 (GLP-1 receptor; [2]): 0.006 nM; EC50 (glucagon receptor; Table 6, Example 12): 0.004 nM
8 | CCCCCCCCCCCCCCCC(=O)N[C@@H](CCC(=O)N[C@@H](CCC(=O)NCCCC[C@H](NC(=O)[C@H](CC(=O)O)NC(=O)[C@H](CO)NC(=O)[C@@H](NC(=O)[C@H](Cc1ccccc1)NC(=O)[C@@H](NC(=O)CNC(=O)[C@H](CCC(N)=O)NC(=O)C(C)(C)NC(=O)[C@@H](N)Cc1ccc(O)cc1)[C@@H](C)O)[C@@H](C)O)C(=O)N[C@@H](CO)C(=O)N[C@H](C(=O)N[C@@H](Cc1ccc(O)cc1)C(=O)N[C@@H](CC(C)C)C(=O)N[C@@H](CC(=O)O)C(=O)N[C@@H](CCCCN)C(=O)N[C@@H](CCC(N)=O)C(=O)N[C@@H](C)C(=O)N[C@@H](C)C(=O)NC(C)(C)C(=O)N[C@@H](CCC(=O)O)C(=O)N[C@@H](Cc1ccccc1)C(=O)N[C@H](C(=O)N[C@@H](CC(N)=O)C(=O)N[C@@H](Cc1c[nH]c2ccccc12)C(=O)N[C@@H](CC(C)C)C(=O)N[C@@H](CC(C)C)C(=O)N[C@@H](C)C(=O)NCC(=O)NCC(=O)N1CCC[C@H]1C(=O)N[C@@H](CO)C(=O)N[C@@H](CO)C(=O)NCC(=O)N[C@@H](C)C(=O)N1CCC[C@H]1C(=O)N1CCC[C@H]1C(=O)N1CCC[C@H]1C(=O)N[C@@H](CO)C(N)=O)C(C)C)[C@@H](C)CC)C(=O)O)C(=O)O [compound 81] (H-Y[Aib]QGTFTSDK([γGlu-γGlu-Palmitoyl])SIYLDKQAA[Aib]EFVNWLLAGGPSSGAPPPS-NH2; N-terminus assumed) |  |  |  |  |  | EC50 (GIP receptor; [1]): 0.005 nM; EC50 (GLP-1 receptor; [2]): 0.008 nM; EC50 (glucagon receptor; Table 6, Example 12): 0.073 nM
9 | CCCCCCCCCCCCCCCC(=O)N[C@@H](CCC(=O)N[C@@H](CCC(=O)NCCCC[C@H](NC(=O)[C@H](CC(=O)O)NC(=O)[C@H](CO)NC(=O)[C@@H](NC(=O)[C@H](Cc1ccccc1)NC(=O)[C@@H](NC(=O)CNC(=O)[C@H](CCC(N)=O)NC(=O)C(C)(C)NC(=O)[C@@H](N)Cc1ccc(O)cc1)[C@@H](C)O)[C@@H](C)O)C(=O)N[C@@H](CO)C(=O)N[C@H](C(=O)N[C@@H](Cc1ccc(O)cc1)C(=O)N[C@@H](CC(C)C)C(=O)N[C@@H](CC(=O)O)C(=O)N[C@@H](CCCCN)C(=O)N[C@@H](CCC(N)=O)C(=O)N[C@@H](C)C(=O)N[C@@H](C)C(=O)NC(C)(C)C(=O)N[C@@H](CCC(=O)O)C(=O)N[C@@H](Cc1ccccc1)C(=O)N[C@H](C(=O)N[C@@H](CC(N)=O)C(=O)N[C@@H](Cc1c[nH]c2ccccc12)C(=O)N[C@@H](CC(C)C)C(=O)N[C@@H](CC(C)C)C(=O)N[C@@H](CC(=O)O)C(=O)NCC(=O)NCC(=O)N1CCC[C@H]1C(=O)N[C@@H](CO)C(=O)N[C@@H](CO)C(=O)NCC(=O)N[C@@H](C)C(=O)N1CCC[C@H]1C(=O)N1CCC[C@H]1C(=O)N1CCC[C@H]1C(=O)N[C@@H](CO)C(N)=O)C(C)C)[C@@H](C)CC)C(=O)O)C(=O)O [compound 91] (H-Y[Aib]QGTFTSDK([γGlu-γGlu-Palmitoyl])SIYLDKQAA[Aib]EFVNWLLDGGPSSGAPPPS-NH2; N-terminus assumed) |  |  |  |  |  | EC50 (GIP receptor; EC50 (nM) at GIP Receptor, Table 7, Example 13): 0.005 nM; EC50 (GLP-1 receptor; EC50 (nM) at GLP-1 Receptor, Table 7, Example 13): 0.008 nM; EC50 (glucagon receptor; Table 7, Example 13): 0.073 nM
10 | Example 8 peptide: Tyr1, AIB2, Glu16/Lys20 lactam, Leu-Ala-Gly 27-29, GPSSGAPPPS 30-39, or a peptide lacking a lactam [mt-217] | 9.57 | 0.20% | 0.222 | 11.26 | 0.82 | 
11 | Example 8 peptide: Tyr1, AIB2, Glu16/Lys20 lactam, Leu-Ala-Gly 27-29, GPSSGAPPPS 30-39, or a peptide lacking a lactam [mt-225] (Y[Aib]QGTFTSDYSIYLDEQAAKEFVNWLLAGGPSSGAPPPSK([Ala-Cys(PEG 40 kDa)-Ac]); lactam 16-20; not fully specified (C-terminus)) |  | 0.90% |  | 29.59 | 1.99 | 
12 | Example 8 peptide: Tyr1, AIB2, Glu16/Lys20 lactam, Leu-Ala-Gly 27-29, GPSSGAPPPS 30-39, or a peptide lacking a lactam [mt-227] (Y[Aib]QGTFTSDYSIYLDEQAAKEFVNWLLAGGPSSGAPPPSK([Arg-Cys(PEG 40 kDa)-Ac]); lactam 16-20; not fully specified (C-terminus)) |  | 1.29% |  | 36.25 | 1.27 | 
